# Measurements: US20230096897A1, “Lymphocyte Population and Methods for Producing Same” (AVM Biotechnology, LLC, priority 2020, published 2023)
# Legend:
# [1] = tested on: human CD3high, CD45dim, CD56+ cells; test: Human AVM-NKT cells in BRGSF humanized mice; type: in vivo, mouse; conditions: oral HED 18-45 mg/kg; 24-48 hours later
# Experimental: BRGSF humanized mice on a Balb/c background from Genoway generated by transplanting human umbilical cord blood CD34+ stem cells into irradiated mice that lack mouse B and T lymphocytes and NK cells but have a functional mouse complement system are orally dosed with HED 18-45 mg/kg DSP. 24-48 hours later human CD3high, and/or human CD45dim, and/or human CD56+ cells can be observed to be about 0.2-3% of total splenocytes by flow cytometry.
# [2] = tested on: CD3high, CD45dim, CD49b+ cells; test: Venetoclax pre-treatment before high dose DSP in female NOD mice; type: in vivo, mouse; conditions: 48 hours after HED 30 mg/kg DSP alone
# Experimental: Female NOD mice of 10 weeks of age are treated with 12.5 mg/kg up to 50 mg/kg venetoclax 6-18 hours before oral gavage of a HED 30 mg/kg DSP dose. […] CD3high, CD45dim, CD49b+ cells are reduced from—70 cells/microliter with DSP alone to—40 cells/microliter with 12.5 mg/kg venetoclax pretreatment, to—20 cells/microliter with 25 mg/kg venetoclax pretreatment, to—15 cells/microliter with 50 mg/kg venetoclax pretreatment. Venetoclax is a Bcl-2 inhibitor.
# [3] = tested on: human CD3high, CD45dim, CD56+ cells; test: Human AVM-NKT cells in HuCD34-NCG mice; type: in vivo, mouse; conditions: oral HED 18-45 mg/kg; 24-48 hours later
# Source text: The HuCD34-NCG mouse from Charles River is a study-ready mouse model with a human-like immune system, created by adoptive transfer of CD34+ stem cells. HuCD34-NCG mice are an ideal in vivo platform to evaluate the effectiveness of compounds modulating the human immune system. The lack, or late onset, of graft-versus-host disease (GvHD) in humanized mice make them ideal for long-term studies.
# NCG mice are humanized by adoptive transfer using human umbilical cord blood-derived CD34+ stem cells, following myeloablation treatment. NCG mice from 4 donors (n=2 per donor) are orally dosed with HED 18-45 mg/kg DSP. 24-48 hours later human CD3high, and/or human CD45dim, and/or human CD56+ cells can be observed to be about 0.2-3% of total splenocytes by flow cytometry.
# [4] = tested on: human CD3high, CD45dim, CD56+ cells; test: Human AVM-NKT cells in huNOG EXL mice; type: in vivo, mouse; conditions: oral HED 18-45 mg/kg; 24-48 hours later
# Experimental: huNOG EXL from Taconic have an average of 54% of CD45 cells positive for human CD45. Six huNOG EXL humanized immune system mice from 3 donors (n=2 per donor) are orally dosed with HED 18-45 mg/kg DSP. 24-48 hours later human CD3high, and/or human CD45dim, and/or human CD56+ cells can be observed to be about 0.2-3% of total splenocytes by flow cytometry.
# [5] = tested on: AVM-NKT cells; test: Flow cytometry of osteoarthritis patients treated with dexamethasone; type: in vivo, human; conditions: 3-6 mg/kg; 48 hours post treatment; one of four patients
substance,measurement,setting,value
dexamethasone sodium phosphate [DSP],"human CD3high, and/or CD45dim, and/or CD56+ cells as share of total splenocytes",[1],0.2-3%
same,"CD3high, CD45dim, CD49b+ cells mobilized into the blood",[2],70 cells/microliter
same,"human CD3high, and/or CD45dim, and/or CD56+ cells as share of total splenocytes",[3],0.2-3%
same,"human CD3high, and/or CD45dim, and/or CD56+ cells as share of total splenocytes",[4],0.2-3%
same,"Cells corresponding to AVM-NKT cells (CD45 dim, CD56 very bright) in blood",[5],identified
